Measurements published in PubChem BioAssay AID330 (DTP/NCI, 2004).
“And” between values parts separate entries of the source, which are not always exact repeats. Identical values can stand only once. Toxic doses and inconclusive results are not listed.

Tested on: P388 leukemia ip, CD2F1 mice, survival T/C
Test: NCI In Vivo Anticancer Drug Screen. Data for tumor model P388 Leukemia (intraperitoneal) in CD2F1 (CDF1) mice
Details: endpoint: median survival time, higher = longer survival
Procedure, shortened: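 Mice carrying the transplanted tumor received test compound or vehicle. Survival was recorded in each group, and the value is the treated-group measurement divided by that of the vehicle-treated control group.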

[1] = dose: 25.0 mg/kg/injection, schedule: Q01DX009 (ip), vehicle: saline with Tween-80
[2] = dose: 50.0 mg/kg/injection, schedule: Q01DX009 (ip), vehicle: saline with Tween-80
[3] = dose: 100.0 mg/kg/injection, schedule: Q01DX009 (ip), vehicle: saline with Tween-80
[4] = dose: 200.0 mg/kg/injection, schedule: Q01DX009 (ip), vehicle: saline with Tween-80
[5] = dose: 60.0 mg/kg/injection, schedule: Q01DX005 (ip), vehicle: saline with Tween-80
[6] = dose: 120.0 mg/kg/injection, schedule: Q01DX005 (ip), vehicle: saline with Tween-80
[7] = dose: 240.0 mg/kg/injection, schedule: Q01DX005 (ip), vehicle: saline with Tween-80
[8] = dose: 100.0 mg/kg/injection, schedule: Q04DX003 (ip), vehicle: saline with Tween-80
[9] = dose: 50.0 mg/kg/injection, schedule: Q01DX009 (ip), vehicle: saline
[10] = dose: 100.0 mg/kg/injection, schedule: Q01DX009 (ip), vehicle: saline
[11] = dose: 200.0 mg/kg/injection, schedule: Q01DX009 (ip), vehicle: saline
[12] = dose: 50.0 mg/kg/injection, schedule: Q01DX009 (ip), vehicle: Klucel (hydroxypropylcellulose) (HPC)
[13] = dose: 100.0 mg/kg/injection, schedule: Q01DX009 (ip), vehicle: Klucel (hydroxypropylcellulose) (HPC)
[14] = dose: 200.0 mg/kg/injection, schedule: Q01DX009 (ip), vehicle: Klucel (hydroxypropylcellulose) (HPC)
[15] = dose: 50.0 mg/kg/injection, schedule: Q01DX005 (ip), vehicle: Klucel (hydroxypropylcellulose) (HPC)
[16] = dose: 100.0 mg/kg/injection, schedule: Q01DX005 (ip), vehicle: Klucel (hydroxypropylcellulose) (HPC)
[17] = dose: 50.0 mg/kg/injection, schedule: Q01DX005 (ip), vehicle: saline with Tween-80
[18] = dose: 100.0 mg/kg/injection, schedule: Q01DX005 (ip), vehicle: saline with Tween-80
[19] = dose: 200.0 mg/kg/injection, schedule: Q01DX005 (ip), vehicle: saline with Tween-80

## CCOC(=O)C(C)(OCC)OCC
[1]
  T/C: 101 % of control
[2]
  T/C: 98 % of control
[3]
  T/C: 98 % of control
[4]
  T/C: 98 % of control
dose: 400.0 mg/kg/injection, schedule: Q01DX009 (ip), vehicle: saline with Tween-80
  T/C: 100 % of control

## CCC1(O)CN2CCc3c([nH]c4ccccc34)C1C(/C=C(\C(=O)OC)c1cc3c(cc1OC)N(C)C1C(O)(C(=O)OC)C(OC(C)=O)C4(CC)C=CCN5CCC31C54)C2 (stereo unspecified)
dose: 1.0 mg/kg/injection, schedule: Q01DX001 (ip), vehicle: distilled water + Tween-80
  T/C: 102 % of control
dose: 2.0 mg/kg/injection, schedule: Q01DX001 (ip), vehicle: distilled water + Tween-80
  T/C: 100 % of control
dose: 2.0 mg/kg/injection, schedule: Q01DX009 (ip), vehicle: distilled water + alcohol
  T/C: 160 % of control
dose: 4.0 mg/kg/injection, schedule: Q01DX001 (ip), vehicle: distilled water + Tween-80
  T/C: 100 % of control
dose: 4.0 mg/kg/injection, schedule: Q01DX009 (ip), vehicle: distilled water + alcohol
  T/C: 152 % of control
dose: 8.0 mg/kg/injection, schedule: Q01DX001 (ip), vehicle: distilled water + Tween-80
  T/C: 102 % of control
dose: 16.0 mg/kg/injection, schedule: Q01DX001 (ip), vehicle: distilled water + Tween-80
  T/C: 112 % of control
dose: 32.0 mg/kg/injection, schedule: Q01DX001 (ip), vehicle: distilled water + Tween-80
  T/C: 100 % of control

## O=C(CCN1C(=O)NC(c2ccccc2)(c2ccccc2)C1=O)NCCN1CCOCC1
[5]
  T/C: 96 % of control
[6]
  T/C: 100 % of control
[7]
  T/C: 102 % of control

## CNC(=O)OCC1=C(COC(=O)NC)C2OC1C(C(=O)OC)=C2C(=O)OC
dose: 3.13 mg/kg/injection, schedule: Q01DX009 (ip), vehicle: distilled water + Tween-80
  T/C: 91 % of control
dose: 12.5 mg/kg/injection, schedule: Q01DX009 (ip), vehicle: distilled water + Tween-80
  T/C: 94 % of control

## O=c1[nH]c2ccccc2c2ccccc12
[8]
  T/C: 90 % of control
dose: 200.0 mg/kg/injection, schedule: Q04DX003 (ip), vehicle: saline with Tween-80
  T/C: 90 % of control
dose: 400.0 mg/kg/injection, schedule: Q04DX003 (ip), vehicle: saline with Tween-80
  T/C: 90 % of control

## C=CCc1ccc(OC(=O)Nc2ccc(C)cc2[N+](=O)[O-])c(OC)c1
[2]
  T/C: 88 % of control
[3]
  T/C: 88 % of control
[4]
  T/C: 95 % of control

## O=C1c2cccc(O)c2C(=O)c2c(OC3OC(CO)C(O)C(O)C3O)cccc21 (stereo unspecified)
[9]
  T/C: 94 % of control
[10]
  T/C: 93 % of control
[11]
  T/C: 88 % of control

## CCOC(=O)C1=C(C)NC(C)=C(C(=O)OCC)C1c1ccccn1
[12]
  T/C: 99 % of control
[13]
  T/C: 97 % of control
[14]
  T/C: 96 % of control

## CC1NC(=O)N(Cc2ccccc2Cl)C1=O (stereo unspecified)
[15]
  T/C: 110 % of control
[16]
  T/C: 106 % of control
dose: 200.0 mg/kg/injection, schedule: Q01DX005 (ip), vehicle: Klucel (hydroxypropylcellulose) (HPC)
  T/C: 110 % of control

## CC(=O)OCc1ccc2ccccc2c1
dose: 100.0 mg/kg/injection, schedule: Q01DX009 (ip), vehicle: saline sonified
  T/C: 100 % of control
dose: 200.0 mg/kg/injection, schedule: Q01DX009 (ip), vehicle: saline sonified
  T/C: 100 % of control
dose: 400.0 mg/kg/injection, schedule: Q01DX009 (ip), vehicle: saline sonified
  T/C: 100 % of control

## CN1C(=O)CNC(=O)c2ccc(Cl)cc21
[17]
  T/C: 108 % of control
[18]
  T/C: 90 % of control
[19]
  T/C: 115 % of control

## Nc1nc2c(ccc3ccccc32)s1
[1]
  T/C: 115 % of control
[2]
  T/C: 102 % of control and 108 % of control and 97 % of control
[3]
  T/C: 100 % of control and 110 % of control and 93 % of control
[4]
  T/C: 103 % of control and 108 % of control and 93 % of control

## CN(Cc1ccccc1)C1=CC(=O)C(N(C)Cc2ccccc2)=CC1=O
[17]
  T/C: 105 % of control
[18]
  T/C: 115 % of control
[19]
  T/C: 101 % of control

## O=C(COC1CCCCC1)OC1CCCCC1
dose: 50.0 mg/kg/injection, schedule: Q04DX003 (ip), vehicle: saline with Tween-80
  T/C: 100 % of control
[8]
  T/C: 100 % of control

## O=Cc1cc(/C(N=Nc2ccccc2C(=O)O)=N/Nc2ccccc2C(=O)O)nc2[nH]c(=O)ccc12
[15]
  T/C: 95 % of control
[16]
  T/C: 100 % of control

## Clc1ccc(C[n+]2ccccc2)cc1Cl
dose: 5.0 mg/kg/injection, schedule: Q04DX003 (ip), vehicle: saline
  T/C: 120 % of control
dose: 10.0 mg/kg/injection, schedule: Q04DX003 (ip), vehicle: saline
  T/C: 110 % of control
dose: 20.0 mg/kg/injection, schedule: Q04DX003 (ip), vehicle: saline
  T/C: 110 % of control

## O=C(CCN1C(=O)c2ccccc2C1=O)C(O)CCN1C(=O)c2ccccc2C1=O (stereo unspecified)
dose: 6.25 mg/kg/injection, schedule: Q01DX005 (ip), vehicle: saline with Tween-80
  T/C: 98 % of control
dose: 12.5 mg/kg/injection, schedule: Q01DX005 (ip), vehicle: saline with Tween-80
  T/C: 107 % of control
dose: 25.0 mg/kg/injection, schedule: Q01DX005 (ip), vehicle: saline with Tween-80
  T/C: 100 % of control
[19]
  T/C: 87 % of control

## COC(=O)CCC(=O)C(C#N)c1nc2ccccc2s1 (stereo unspecified)
[17]
  T/C: 94 % of control
[18]
  T/C: 92 % of control
[19]
  T/C: 92 % of control

## CSC(=N\N=C\c1ccc2c(c1)OCO2)/N=C/N(C)C
[5]
  T/C: 98 % of control
[6]
  T/C: 97 % of control
[7]
  T/C: 94 % of control

## CC(=O)NC(CC(=O)O)C(=O)O (stereo unspecified)
dose: 100.0 mg/kg/injection, schedule: Q01DX001 (ip), vehicle: saline
  T/C: 106 % of control
dose: 200.0 mg/kg/injection, schedule: Q01DX001 (ip), vehicle: saline
  T/C: 100 % of control
dose: 400.0 mg/kg/injection, schedule: Q01DX001 (ip), vehicle: saline
  T/C: 97 % of control

## C=C1C(=O)OC2(C)CCCCC12 (stereo unspecified)
[12]
  T/C: 92 % of control
[13]
  T/C: 100 % of control
[14]
  T/C: 93 % of control

## CCCCCCCCCC[n+]1cccc(C(N)=O)c1
dose: 5.0 mg/kg/injection, schedule: Q01DX009 (ip), vehicle: saline with Tween-80
  T/C: 100 % of control
dose: 10.0 mg/kg/injection, schedule: Q01DX009 (ip), vehicle: saline with Tween-80
  T/C: 109 % of control
dose: 20.0 mg/kg/injection, schedule: Q01DX009 (ip), vehicle: saline with Tween-80
  T/C: 113 % of control

## O=C1CN2CCN3CC(=O)NC(=O)[C@H]3[C@@H]2C(=O)N1
[5]
  T/C: 96 % of control
[6]
  T/C: 96 % of control
[7]
  T/C: 98 % of control

## ClCc1nnc2n1-c1ccc(Cl)cc1SC2
[5]
  T/C: 106 % of control
[6]
  T/C: 107 % of control

## O=C(O)/C=N/NP(=O)(Oc1ccccc1)Oc1ccccc1
dose: 25.0 mg/kg/injection, schedule: Q01DX009 (ip), vehicle: distilled water + Tween-80
  T/C: 99 % of control
dose: 50.0 mg/kg/injection, schedule: Q01DX009 (ip), vehicle: distilled water + Tween-80
  T/C: 100 % of control and 94 % of control
dose: 100.0 mg/kg/injection, schedule: Q01DX009 (ip), vehicle: distilled water + Tween-80
  T/C: 100 % of control and 95 % of control
dose: 200.0 mg/kg/injection, schedule: Q01DX009 (ip), vehicle: distilled water + Tween-80
  T/C: 100 % of control and 97 % of control
dose: 400.0 mg/kg/injection, schedule: Q01DX009 (ip), vehicle: distilled water + Tween-80
  T/C: 100 % of control and 109 % of control

## CCCCCCCCCCCC(=O)OCCN(CCOC(=O)CCCCCCCCCCC)C(=O)c1ccccc1
[2]
  T/C: 95 % of control
[3]
  T/C: 100 % of control
[4]
  T/C: 93 % of control

## COc1ccc2c(c1)s/c(=N/N)n2CCCS(=O)(=O)O
[9]
  T/C: 109 % of control
[10]
  T/C: 103 % of control
[11]
  T/C: 110 % of control

## CC(O)c1cc(=O)[nH][nH]1 (stereo unspecified)
dose: 50.0 mg/kg/injection, schedule: Q01DX005 (ip), vehicle: saline
  T/C: 105 % of control
dose: 100.0 mg/kg/injection, schedule: Q01DX005 (ip), vehicle: saline
  T/C: 99 % of control
dose: 200.0 mg/kg/injection, schedule: Q01DX005 (ip), vehicle: saline
  T/C: 110 % of control

## COc1cc([N+](=O)[O-])ccc1N=Cc1ccc(C=Nc2ccc([N+](=O)[O-])cc2OC)cc1
[12]
  T/C: 95 % of control and 96 % of control
[13]
  T/C: 86 % of control and 96 % of control
[14]
  T/C: 96 % of control

## CNC(=O)OCc1nc(-c2ccccc2)sc1COC(=O)NC
dose: 12.5 mg/kg/injection, schedule: Q01DX005 (ip), vehicle: distilled water + Tween-80
  T/C: 94 % of control
dose: 25.0 mg/kg/injection, schedule: Q01DX005 (ip), vehicle: distilled water + Tween-80
  T/C: 93 % of control
